Like-named read-outs stand apart in the source and are kept apart here.
Columns and labels:
FtuβCA = target: T1, FtuβCA (Francisella tularensis, UniProt Q5NH77); format: biochemical; conditions: read-out: KI (μM)^a / FtuβCA
T1 construct: gene cynT

CgNce [1] = target: T2, CgNce (Nakaseomyces glabratus, UniProt Q6FTL6); assay: biochemical
T2 construct: gene NCE103

LdcCA = target: T3, LdcCA (Leishmania infantum, UniProt A4HSV2); conditions: read-out: KI (μM)^a / LdcCA; CO2 hydration, TRIS pH 8.3, 20 mM Na2SO4, 1 h preincubation at room temperature
T3 construct: gene LINJ_06_0630
T3 sequence (A4HSV2 1-306): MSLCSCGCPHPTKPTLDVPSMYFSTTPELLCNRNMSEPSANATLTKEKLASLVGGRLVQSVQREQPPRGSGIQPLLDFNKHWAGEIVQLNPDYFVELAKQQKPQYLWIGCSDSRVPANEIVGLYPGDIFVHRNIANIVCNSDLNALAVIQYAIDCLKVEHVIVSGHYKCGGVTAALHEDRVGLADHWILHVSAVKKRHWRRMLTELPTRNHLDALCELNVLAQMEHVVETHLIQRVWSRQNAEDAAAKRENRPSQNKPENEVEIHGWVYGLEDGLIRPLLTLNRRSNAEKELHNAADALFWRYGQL

BpsCAβ = target: T4, BpsCAβ (Burkholderia pseudomallei, UniProt Q63Y17); format: biochemical; conditions: read-out: KI (μM)^a / BpsCAβ
T4 construct: gene BPSL0372

Can2 = target: T5, Can2 (Cryptococcus neoformans, UniProt Q3I4V7); format: biochemical
T5 construct: recombinant, obtained in-house
T5 sequence (Q3I4V7 1-239): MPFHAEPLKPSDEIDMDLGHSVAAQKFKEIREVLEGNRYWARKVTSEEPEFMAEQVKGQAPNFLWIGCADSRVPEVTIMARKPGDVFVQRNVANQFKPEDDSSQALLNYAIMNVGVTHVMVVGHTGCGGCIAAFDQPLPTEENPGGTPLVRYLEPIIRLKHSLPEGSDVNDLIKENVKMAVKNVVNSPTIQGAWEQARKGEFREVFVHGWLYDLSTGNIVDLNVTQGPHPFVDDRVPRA

VChβ [2] = target: T6, VChβ (Vibrio cholerae, UniProt Q9KUD6); assay: biochemical
T6 construct: gene VC_0586

MgCA = target: T7, MgCA (Malassezia globosa, UniProt A8Q1N3); assay: biochemical
T7 construct: gene MGL_1814
T7 sequence (A8Q1N3 1-241): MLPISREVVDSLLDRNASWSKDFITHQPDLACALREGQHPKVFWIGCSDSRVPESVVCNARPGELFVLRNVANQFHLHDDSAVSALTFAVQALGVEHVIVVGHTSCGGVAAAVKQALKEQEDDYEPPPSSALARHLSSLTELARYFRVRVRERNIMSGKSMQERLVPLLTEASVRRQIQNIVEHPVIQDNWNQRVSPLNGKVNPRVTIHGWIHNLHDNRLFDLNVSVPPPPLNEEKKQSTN

CgNce [3] = target: T2, CgNce; conditions: read-out: KI (μM)^a / CgNce; CO2 hydration, TRIS pH 8.3, 20 mM Na2SO4, 1 h preincubation at room temperature
VChβ [4] = target: T6, VChβ; conditions: read-out: KI (μM)^a / VChβ; CO2 hydration, TRIS pH 8.3, 20 mM Na2SO4, 1 h preincubation at room temperature

T2 sequence (Q6FTL6 entry or part of it): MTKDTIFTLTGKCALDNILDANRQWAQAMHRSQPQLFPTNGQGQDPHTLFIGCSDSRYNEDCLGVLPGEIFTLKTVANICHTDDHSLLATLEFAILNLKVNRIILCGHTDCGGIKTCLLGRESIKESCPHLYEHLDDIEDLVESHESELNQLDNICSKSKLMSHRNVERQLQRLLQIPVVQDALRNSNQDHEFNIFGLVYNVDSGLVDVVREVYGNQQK
T4 sequence (Q63Y17 1-256): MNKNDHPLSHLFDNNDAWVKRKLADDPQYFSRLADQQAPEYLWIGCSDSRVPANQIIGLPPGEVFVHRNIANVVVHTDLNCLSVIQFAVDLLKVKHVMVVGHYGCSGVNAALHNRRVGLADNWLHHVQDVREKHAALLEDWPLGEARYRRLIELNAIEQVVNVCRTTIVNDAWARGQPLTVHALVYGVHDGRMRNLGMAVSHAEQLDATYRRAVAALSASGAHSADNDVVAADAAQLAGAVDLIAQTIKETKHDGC
T6 sequence (Q9KUD6 1-222): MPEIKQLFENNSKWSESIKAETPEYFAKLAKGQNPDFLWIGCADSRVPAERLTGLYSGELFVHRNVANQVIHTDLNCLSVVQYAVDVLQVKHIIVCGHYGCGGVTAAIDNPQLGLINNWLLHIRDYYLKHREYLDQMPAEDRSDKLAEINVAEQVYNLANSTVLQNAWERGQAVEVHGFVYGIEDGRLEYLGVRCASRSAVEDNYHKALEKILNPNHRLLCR
T1 sequence (Q5NH77 1-228): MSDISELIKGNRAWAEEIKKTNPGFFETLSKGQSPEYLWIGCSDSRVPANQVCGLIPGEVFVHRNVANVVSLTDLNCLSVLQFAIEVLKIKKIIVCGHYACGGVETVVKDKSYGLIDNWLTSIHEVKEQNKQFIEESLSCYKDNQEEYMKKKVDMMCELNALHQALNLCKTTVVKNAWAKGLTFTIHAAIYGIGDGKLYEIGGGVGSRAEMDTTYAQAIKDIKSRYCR

**Q.** For `CC(C)OP(N)(=O)c1ccccc1` (centres unmarked) [compound 6, isopropyl (6)], which Ki (FtuβCA) is on record?
**A.** Its Ki is 18.4 µM.

**Q.** What about the Ki (CgNce [1]) of the same compound?
**A.** The Ki was 700 nM.

**Q.** And the Ki (LdcCA)?
**A.** Its Ki is 5.1 µM.

**Q.** What about the Ki (BpsCAβ) of the same compound?
**A.** Its Ki is 5.8 µM.

**Q.** What about the Ki (Can2; read-out: KI (μM)^a / Can2) of the same compound?
**A.** The Ki was 0.1 µM.

**Q.** And the Ki (VChβ [2])?
**A.** The Ki was 7.3 µM.

**Q.** What does the source list for `CCCCOP(N)(=O)c1ccccc1` (centres unmarked) [compound 7, alkyl phosphonamidate 7]?
**A.** Ki (FtuβCA): 42 µM; Ki (CgNce [1]): 5300 nM; Ki (BpsCAβ): 22.5 µM; Ki (Can2; read-out: KI (μM)^a / Can2): 2.2 µM; Ki (VChβ [2]): 26.8 µM

**Q.** `NP(=O)(OCCCl)c1ccccc1` (centres unmarked) [compound 9, alkyl phosphonamidate 9] was tested. Which Ki (FtuβCA) did it give?
**A.** Its Ki is 15.1 µM.

**Q.** And the Ki (CgNce [1])?
**A.** The Ki was 1800 nM.

**Q.** What about the Ki (BpsCAβ) of the same compound?
**A.** Its Ki is 32.7 µM.

**Q.** What about the Ki (Can2) of the same compound?
**A.** The Ki was 0.6 µM.

**Q.** And the Ki (VChβ [2])?
**A.** The Ki was 34.7 µM.

**Q.** For `CCOP(N)(=O)c1ccccc1` (centres unmarked) [compound 4, ethyl derivative 4], which Ki (CgNce [1]) is on record?
**A.** The Ki was 800 nM.

**Q.** What about the Ki (LdcCA) of the same compound?
**A.** Its Ki is 3.5 µM.

**Q.** And the Ki (BpsCAβ)?
**A.** Its Ki is 4.6 µM.

**Q.** And the Ki (Can2; read-out: KI (μM)^a / Can2)?
**A.** The Ki was 0.05 µM.

**Q.** What about the Ki (VChβ [2]) of the same compound?
**A.** The Ki was 9.5 µM.

**Q.** Which results are given for `CCCOP(N)(=O)c1ccccc1` (centres unmarked) [compound 5, propyl (5)]?
**A.** Ki (FtuβCA): 35.6 µM; Ki (CgNce [1]): 1300 nM; Ki (LdcCA): 6.8 µM; Ki (BpsCAβ): 12.6 µM; Ki (MgCA): 79 µM; Ki (Can2; read-out: KI (μM)^a / Can2): 0.9 µM; Ki (VChβ [2]): 15.4 µM

**Q.** What does the source list for `C#CCOP(N)(=O)c1ccccc1` (centres unmarked) [compound 10, propargyl phosphonamidate 10]?
**A.** Ki (FtuβCA): 6.9 µM; Ki (CgNce [1]): 20200 nM; Ki (LdcCA): 19.3 µM; Ki (BpsCAβ): 18.9 µM; Ki (MgCA): 97.4 µM; Ki (Can2; read-out: KI (μM)^a / Can2): 5.3 µM; Ki (VChβ [2]): 20.9 µM

**Q.** What does the source list for `COP(N)(=O)c1ccccc1` (centres unmarked) [compound 3, methyl phosphonamidate 3]?
**A.** Ki (FtuβCA): 8.5 µM; Ki (CgNce [1]): 200 nM; Ki (LdcCA): 0.8 µM; Ki (BpsCAβ): 2.1 µM; Ki (Can2; read-out: KI (μM)^a / Can2): 0.02 µM; Ki (VChβ [2]): 0.5 µM

**Q.** Which Ki (FtuβCA) does the source give for `NP(N)(=O)c1ccccc1` [compound 2, phenylphosphonic diamide 2] here?
**A.** The Ki was 10.3 µM.

**Q.** And the Ki (LdcCA)?
**A.** Its Ki is 2.1 µM.

**Q.** And the Ki (CgNce [3])?
**A.** Its Ki is 0.05 µM.

**Q.** What about the Ki (BpsCAβ) of the same compound?
**A.** The Ki was 2.5 µM.

**Q.** And the Ki (VChβ [4])?
**A.** Its Ki is 0.9 µM.

**Q.** And the Ki (Can2; CO2 hydration, TRIS pH 8.3, 20 mM Na2SO4, 1 h preincubation at room temperature, read-out: KI (μM)^a / Can2)?
**A.** The Ki was 0.03 µM.
